Reference: patent publication US20210386743A1, “USE OF PDE9 INHIBITORS FOR TREATMENT” (The Johns Hopkins University, priority 2018, published 2021)
“Also recorded” adds a separate entry of the source.

Experiments:
Assay type in all cases: in vivo, mouse
[1] = tested on: OVX+HFD+TAC female mice (C57BL/6N); assay: Body weight and body composition (EchoMRI) in OVX+HFD+TAC female mice; settings: OVX+HFD+TAC females
Protocol: (§1) All animals were fed a high fat diet (HFD) consisting of 60% kcal derived from fat was fed to both male and female C57BL6N mice for 3 months. Mice were divided into two groups: 1) Controls with intact ovaries; 2) Ovariectomized (Ovx) mice. Mice were assigned to receive trans-aortic constriction (TAC) or sham surgery after 3 months of HFD, and further randomized to placebo vehicle and PDE9-I (PDE9 inhibitor oral gavage 20 mg/kg twice daily) (FIG. 1). Comparison of Group 1 and 2 tests the efficacy of PDE9-I to ameliorate and/or reverse HFD and pressure-overload pathophysiology independent of sex hormone status.
(§2) Body composition: total fat mass, lean mass, and water content was determined by quantitative nuclear magnetic resonance (Echo-MRI®). In brief, after 20 weeks on the HFD, total body fat and lean body mass were assessed non-invasively by EchoMRI instrument. The analyzer delivers precise body composition measurements of fat, lean, free water, and total water masses in live animals weighing up to 100 grams. Conscious mice were placed in a constraint tube that was then inserted into the EchoMRI for a period of approximately 30 s and these measurements obtained.
(§3) Female mice (C57BL/6N) were placed on a 60% fat diet starting at age 5-weeks. Two weeks later, there were randomized to receive bilateral oophorectomy or sham surgery. Cardiac imaging for ventricular function and morphometry was determined 2 months later. Between 8-11 weeks after ovariectomy, the mice underwent a second surgical procedure introducing a mild aortic constriction (TAC) in the transverse aorta to increase pressure load on the heart. The purpose of the TAC procedure was to stimulate the heart to synthesize natriuretic peptide, which is important for the generation of cyclic GMP which PDE9 regulates. Serial echocardiograms were obtained, and starting 1 week after TAC, mice were further randomized to receive vehicle control or a PDE9 inhibitor (PF-7943). Intact mouse metabolic studies, fat/lean mass determinations, and heart function were assessed. At terminal study, tissues were harvested for molecular signaling.
After 20 weeks on the HFD+ 8 wks mTAC, total body fat and lean body mass were assessed non-invasively by EchoMRI.

[2] = tested on: OVX+HFD+TAC female mice (C57BL/6N); assay: Whole body metabolism by indirect calorimetry (CLAMS metabolic cage) in OVX+HFD+TAC female mice; settings: OVX+HFD+TAC females, vs vehicle; for oxygen consumption (VO2): normalized to body mass
Protocol: as §1
(§4) Whole body metabolism: Indirect calorimetry was used to assess metabolic parameters in live animals using the OxyMAX Comprehensive Lab Animal Monitoring System (Columbus Instruments, Columbus Ohio). Basic metabolic rate (VO2 consumption), VCO2 release and energy expenditure (EE) were measured by indirect calorimetry in high-fat-fed OVX mice groups treated with (Drug) and without PDE9 inhibitor (Control). Respiratory exchange ratio (RER) was calculated from VCO2 release-to-VO2 consumption ratio (VCO2 release/VO2 consumption). CLAMS cabinet was used to measure oxygen consumption rate at 22° C. (VO2), CO2 emission, respiratory exchange ratio, heat production, food consumption (g consumed per day), and total and ambulatory activity per day.
as §3
RER is calculated from VCO2/VO2 ratio. […] Even if fat mass is assumed to contribute only 15% of total metabolic activity relative to lean mass, these differences remain significant (data not shown). […] P values are for unpaired t-tests between groups.

[3] = tested on: OVX+HFD+TAC female mice (C57BL/6N); assay: Fasting blood markers of metabolic syndrome and liver histology in OVX+HFD+TAC female mice; settings: for hepatic fat accumulation (liver histology): OVX females on HFD, vs no additional therapy; for fasting blood glucose / fasting blood total cholesterol / fasting total blood triglycerides: OVX+HFD+TAC females, end of study
Protocol: as §1, §3
Multiple biomarkers of metabolic syndrome and fat accumulation in the liver were improved in OVX+HFD+TAC female mice by PDE9 inhibition (FIG. 8). Data are shown at end-of study for fasting blood glucose, cholesterol, triglycerides, and histology of the liver.

[4] = tested on: C57BL6/N female mice with intact ovaries, HFD+TAC; assay: Whole body metabolism (indirect calorimetry) in HFD+TAC female mice with intact ovaries; settings: females with intact ovaries, HFD + pressure overload
Protocol: as §1, §4
In a second experiment, we examined the impact of PDE9 inhibition on female mice (C57BL6/N) subjected to HFD+TAC, but without ovariectomy and thus had normal estrogen levels.

[5] = tested on: female mice, high fat diet induced obesity plus mild pressure stress; assay: Cardiac disease in obese (HFD) female mice with mild pressure stress on the heart; settings: females; high fat diet induced obesity and metabolic syndrome + mild pressure stress on the heart
Description: Our laboratory has studied the impact of PDE9 inhibition on the heart, in particular in male mice subjected to pressure overload stress to induced cardiac hypertrophy, dysfunction, and pathological fibrosis. Over the past 1.5 years, we have turned to females, and in particular added the impact of high fat diet induced obesity and metabolic syndrome. This is then combined with a mild pressure stress on the heart to stimulate production of natriuretic peptides and some hypertrophy of the heart muscle. […] However, there was minimal impact on peripheral body weight, metabolism, or fat mass in these studies.

male HFD+TAC mice = assay: Body weight and body composition in male HFD+TAC mice; settings: listed as PDE9-inhibitor
Protocol: as §1, §2
In a third experiment, we exposed male mice of a similar starting age (5 weeks) to the same HFD protocol, and then same TAC protocol. […]

SMILES: C[C@@H]1CN(Cc2ncccn2)C[C@H]1c1nc2c(cnn2C2CCOCC2)c(=O)[nH]1 [PF 04447943]
- relative weight reduction compared to OVX mice on normal diet [1]: ~30%
- absolute lean body mass ([1]; EchoMRI): no change in absolute lean body mass
- percent body fat ([1]; EchoMRI): reduced percent body fat
- percent lean body mass ([1]; EchoMRI): increased percent lean body mass
- fat weight ([1]; EchoMRI, 20 weeks HFD + 8 wks mTAC): significant decline in fat weight
- body weight decline ([1]; PDE9 inhibitor treatment): ~20%
- oxygen consumption (VO2) ([2]; listed as PDE9I): increases total oxygen consumption normalized to body mass
- oxygen consumption (VO2) ([2]; listed as PDE9 inhibitor): increases in oxygen consumption
- carbon dioxide generation (VCO2) ([2]; normalized to total body mass): increases
- calculated energy expenditure (heat) [2]: increased
- respiratory exchange ratio (RER) [2]: not significantly altered
- hepatic fat accumulation (liver histology) ([3]; listed as PDE9-I): markedly reduced
- hepatic fat accumulation (liver histology) ([3]; listed as PDE9 inhibitor): marked reduction of fat accumulation in the liver
- fasting blood glucose ([3]; listed as PDE9-I): reduced
- fasting blood total cholesterol ([3]; listed as PDE9-I): reduced
- fasting total blood triglycerides ([3]; listed as PDE9-I): reduced
- fasting blood glucose ([3]; listed as PDE9 inhibitor): reduced towards normal control levels
- fasting blood total cholesterol ([3]; listed as PDE9 inhibitor): reduced towards normal control levels
- fasting total blood triglycerides ([3]; listed as PDE9 inhibitor): reduced towards normal control levels
- calculated energy expenditure [4]: do not show any changes
- CO2 production ([4]; listed as PDE9-I): no difference
- overall oxygen consumption ([4]; listed as PDE9-I): no difference
- respiratory exchange ratio ([4]; listed as PDE9-I): no difference
- CO2 production ([4]; listed as PDE9i): do not show any changes
- overall oxygen consumption ([4]; listed as PDE9i): do not show any changes
- respiratory exchange ratio ([4]; listed as PDE9i): do not show any changes
- cardiac disease [5]: can indeed ameliorate cardiac disease
- total body weight / body mass (male HFD+TAC mice): only borderline altered; also recorded: trend towards reduced body weight
- total fat mass / body fat (male HFD+TAC mice): significant reduction in total fat mass; also recorded: decline in body fat
